# Patent publication US20050026903A1, “CCK-1 receptor modulators” (priority 2003, published 2005)
# Where a name gives a salt, the structure may show the parent alone. Read-outs that look alike come from different tables or passages of the source.
# What was measured:
# CCK-1 receptor = target: T1, CCK-1 receptor (Homo sapiens, UniProt P32238); assay: CCK-1 receptor radioligand binding assay ([125I]-BH-CCK-8S competition, membranes of stably transfected CHO-K1 cells)
# T1 construct: expressed in transfected cells; membranes
# T1 sequence (P32238 1-428): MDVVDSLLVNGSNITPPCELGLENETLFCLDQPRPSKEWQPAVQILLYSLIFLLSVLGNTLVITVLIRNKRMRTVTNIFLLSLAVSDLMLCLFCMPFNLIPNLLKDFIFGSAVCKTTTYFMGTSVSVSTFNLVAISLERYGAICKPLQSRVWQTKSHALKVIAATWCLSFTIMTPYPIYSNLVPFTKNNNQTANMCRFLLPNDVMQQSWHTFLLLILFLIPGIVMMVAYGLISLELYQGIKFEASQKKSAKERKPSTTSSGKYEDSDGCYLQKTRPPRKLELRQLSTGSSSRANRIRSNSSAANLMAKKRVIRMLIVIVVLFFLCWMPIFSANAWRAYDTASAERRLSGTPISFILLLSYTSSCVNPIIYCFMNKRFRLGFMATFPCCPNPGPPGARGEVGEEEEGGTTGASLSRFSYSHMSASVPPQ
# Experimental: CHO-K1 cells that had undergone stable transfection with the CCK-1 receptor were grown in DMEM supplemented with L-glutamine (2 mM), penicillin (50 units/mL) and streptomycin (50 μg/mL). Cells were cultured under continuous G418 selection (2 mM) and were harvested using a rubber cell scraper. CHO-K1 cells were sub-cultured a maximum of ten times before being reseeded from the original stocks.
# Membranes were prepared from the stably transfected CHO-K1 cells. Frozen cell pellets (−40° C.) were thawed in 14 mL of buffer A (10 mM HEPES, 130 mM NaCl, 4.7 mM KCl, 5 mM MgCl, 1 mM EGTA and 15.4 mg/100 mL bacitracin at pH 7.2), adapted from Harper et al. (Br. J. Pharmacol. (1996) 118, pp 1717-1726). The thawed pellets were homogenized using a Polytron PT-10 (7×1 s). […]
# All assays were conducted in 96-well plates (GF/B millipore filter plates) using buffer A, with 0.3 μM PD-134,308, for the dilutions. […] Total binding of [125I]—BH—CCK-8S was determined in the presence of 15 μL of buffer A. Non-specific binding of [125I]—BH—CCK-8S was determined in the presence of 15 μL of 100 μM 2-naphthalenesulphonyl L-aspartyl-(2-phenethyl)amide (2-NAP: see R. A. Hull et al., Br. J. Pharmacol. (1993) 108, pp 734-740), a CCK-1 receptor selective antagonist that is structurally unrelated to the radioligand [125I]—BH—CCK-8S. […] Bound radioactivity was determined using a gamma counter (count time=1 min). […]
structure (smiles),measurement,setting,value
"COc1ccc(-n2nc(C[C@H](C([O])=O)c3cccc(C)c3)cc2-c2ccc(Cl)c(Cl)c2)cc1 (as salt: sodium) [Example 1, (S)-Sodium; 3-[5-(3,4-dichloro-phenyl)-1-(4-methoxy-phenyl)-1H-pyrazol-3-yl]-2-m-tolyl-propionate]",melting point,,295.5 to 297.5 °C
"COc1ccc(-n2nc(CC(C(=O)O)c3cccc4ccccc34)cc2-c2ccc3c(c2)OCO3)cc1 (racemic) [Example 27, 3-[5-Benzo[1,3]dioxol-5-yl-1-(4-methoxy-phenyl)-1H-pyrazol-3-yl]-2-naphthalen-1-yl-propionic acid]",Ki,"CCK-1 receptor; [125I]-BH-CCK-8S competition, membranes of CHO-K1 cells stably transfected with CCK-1 receptor, 0.3 μM PD-134,308 present, read-out: pKi (converted)",6.31 nM
"COc1ccc(-n2nc(C[C@H](C([O])=O)c3cccc(C)c3)cc2-c2ccc(Cl)c(Cl)c2)cc1 [Example 1, (S)-Sodium; 3-[5-(3,4-dichloro-phenyl)-1-(4-methoxy-phenyl)-1H-pyrazol-3-yl]-2-m-tolyl-propionate]",Ki,CCK-1 receptor,10 nM
